Assay results taken from patent publication US10202399B2, “Dihydroxy aromatic heterocyclic compound” (Takeda Pharmaceutical Company Limited, priority 2011, dated 2019).

Key:
[1] = molecular target: recombinant human DAAO protein (Homo sapiens (Human), UniProt P14920); assay: DAAO inhibitory activity test (H2O2/Amplex red fluorescence); type: biochemical; conditions: D-alanine substrate, Amplex red fluorescence
Description: The DAAO inhibitory activity was measured by assaying the amount of hydrogen peroxide (H2O2) produced by reacting DAAO protein with flavin adenine dinucleotide (FAD) and D-alanine. The amount of H2O2 was determined by measuring the fluorescence generated on conversion of Amplex red (manufactured by Invitrogen Co.) into resorufin by the reaction of H2O2 with horseradish peroxidase (HRP).
Escherichia coli strain BL21(DE3) (manufactured by Novagen) was transformed with the constructed human DAAO expression vector, inoculated into LB culture medium containing kanamycin at a final concentration of 20 μg/mL, and shake-cultured at 37° C. overnight. The multiplied transformant was inoculated into Terrific Broth containing kanamycin at a final concentration of 20 μg/mL, and shake-cultured at 37° C. until it reached OD600=3.0. Thereafter, the culture was cooled to 30° C., and expression was induced with 1 mM IPTG. After 20 hours, bacterial pellets were recovered by centrifugation.
The bacterial pellets recovered as above were suspended in a lysis buffer (17 mM sodium pyrophosphate buffer pH 8.3, 100 μM FAD, 1 mM sodium benzoate, 1 mM PMSF, 14 mM β-mercaptoethanol, 0.2 mg/mL lysozyme) and the bacteria were fractured by sonication. The sonicated liquid was centrifuged and the supernatant was recovered. […]

[2] = molecular target: HEK293 cells that stably express human DAAO (Homo sapiens (Human), UniProt P14920); assay: Inhibitory activity test at cellular level using DAAO-expressing cells; type: cell-based
Description: HEK293 cells that stably express human DAAO were suspended in Cellbanker solution at 5×10^6 cells/ml and cryopreserved at −80° C. At the time of measurement, the cells were centrifuged at 1000 rpm for one min and the Cellbanker solution was removed. […] A 4% DMSO buffer solution (50 mM sodium phosphate [pH 7.5], 0.02% CHAPS) of the test compound (4 μL) was added to a 384-well black, low volume plate, the cell suspension (4 μL) was added, and the mixture was incubated at room temperature for 15 min.
Reverse transcription was performed on human normal kidney tissue-derived RNA (Clontech Corp.) using reverse transcriptase (SuperScriptIII, Life Technologies Corporation) and oligo (dT) primer (Life Technologies Corporation) according to the protocol of the kit (Life Technologies Corporation) and cDNA was synthesized. Then, using human DAAO_HindIII_F represented by Sequence No. 1 and human DAAO_BamHI_R represented by Sequence No. 2, a PCR reaction (35 cycles of 98° C. for 15 sec, 55° C. for 15 sec and 68° C. for 1 min 30 sec) was performed using DNA polymerase (PrimeSTAR, TAKARA BIO INC.) and cDNA obtained as above as a template. […] The PCR product was cloned in a cloning vector (pCR2.1-TOPO Cloning Kit, Life Technologies Corporation). The sequence of the insert was determined by the dideoxy sequence method (BigDye Terminator v3.1 Cycle Sequencing Kit; Life Technologies Corporation). […]

Molecule `O=c1[nH]nc(COc2ccc(Cl)cc2)cc1O` [Example 254] has an IC50 [1] of 2.7 nM and an IC50 [2] of 6.3 nM.
